This note sets out measurements from US20240423908A1, “Improved Nasal Administration of Parkinson's Therapeutics” (Cyrano Therapeutics, Inc., priority 2022, published 2024).

What all share (type): in vivo
One assay concerns Alzheimer's disease. Put plainly: Treatment of Alzheimer's disease with a nasal spray composition (Example 7). The conditions noted are these: donepezil composition, nasal spray 3× daily in each naris. From the text: A subject is admitted to a clinic for confusion and inability to concentrate. The subject is diagnosed with Alzheimer's disease. The subject is prescribed a donepezil composition in a nasal spray device described herein. The subject administers the nasal spray in an effective dose 3× daily in each naris. The nasal spray is characterized by a spray containing a D50 of about 15 μm to about 24 μm, a D90 of from about 30 μm to about 50 μm, and where less than about 3% of the droplets in the plume of a spray have a size of less than about 10 μm.

The next assay concerns Parkinson's disease. Put plainly: Treatment of Parkinson's disease with a nasal spray composition (Examples 4 and 6). From the text: A subject is admitted to a clinic for tremors and rigid muscles. The subject is diagnosed with Parkinson's disease. The subject is prescribed a rolipram composition in a nasal spray device described herein. The subject administers the nasal spray in an effective dose 2× daily in each naris. The nasal spray is characterized by a spray containing a D50 of about 15 μm to about 24 μm, a D90 of from about 30 μm to about 50 μm, and where less than about 3% of the droplets in the plume of a spray have a size of less than about 10 μm.
A subject is admitted to a clinic for bradykinesia and impaired balance. The subject is diagnosed with Parkinson's disease. The subject is prescribed a levodopa composition in a nasal spray device described herein. The subject administers the nasal spray in an effective dose 4× daily in each naris. The nasal spray is characterized by a spray containing a D50 of about 15 μm to about 24 μm, a D90 of from about 30 μm to about 50 μm, and where less than about 3% of the droplets in the plume of a spray have a size of less than about 10 μm.

Assay [1] deals with loss of taste associated with Parkinson's disease. Put plainly: Treatment of chemosensory dysfunction in a Parkinson's disease patient (Example 5). The note with it: theophylline composition, nasal spray 2× daily in each naris. From the text: A subject is admitted to a clinic for loss of taste associated with Parkinson's disease. The subject is diagnosed with chemosensory dysfunction. The subject is prescribed a theophylline composition in a nasal spray device described herein. The subject administers the nasal spray in an effective dose 2× daily in each naris. The nasal spray is characterized by a spray containing a D50 of about 15 μm to about 24 μm, a D90 of from about 30 μm to about 50 μm, and where less than about 3% of the droplets in the plume of a spray have a size of less than about 10 μm.

In assay [2] the test system is chemosensory dysfunction associated with Parkinson's disease. Nature of the assay: Treatment of Parkinson's disease chemosensory dysfunction with intranasal theophylline (Example 9). The conditions noted are these: adult human male; about 0.4 ml per day of 3.1 mg/ml theophylline liquid composition, nasal spray twice daily in each naris; after 7 days. The method, then: An adult human subject was treated for chemosensory dysfunction associated with Parkinson's disease. […] The subject was administered about 0.4 ml per day of a liquid composition comprising theophylline at a concentration of 3.1 mg/ml in a nasal spray device described herein. The subject administered the nasal spray twice daily in each naris.

On to `COc1cc2c(cc1OC)C(=O)C(CC1CCN(Cc3ccccc3)CC1)C2` (centres unmarked) [donepezil], for which, in the assay with Alzheimer's disease, the confusion and concentration result is “reduced confusion and improved concentration”.

As to `N[C@@H](Cc1ccc(O)c(O)c1)C(=O)O` [levodopa], in the assay on Parkinson's disease (levodopa composition, nasal spray 4× daily in each naris), the bradykinesia and balance entry is “reduced bradykinesia and improved balance”.

Take `COc1ccc(C2CNC(=O)C2)cc1OC1CCCC1` (centres unmarked) [rolipram]: the “symptoms of Parkinson's disease” value in the assay on Parkinson's disease (rolipram composition, nasal spray 2× daily in each naris) is “reduced symptoms (e.g., reduced tremors and reduced muscle rigidity)”.

As to `Cn1c(=O)c2[nH]cnc2n(C)c1=O` [theophylline], the sense of taste entry in assay [1] was “regains the sense of taste”. Moreover, the “ability to taste and smell” value in assay [2] is “regained their ability to taste and smell”.
